Measured values taken from US6114334A, “Piperazine derivatives as therapeutic agents” (Knoll Aktiengesellschaft, priority 1995, dated 2000).

How the values were obtained:
5-HT1A receptors = target: T1, 5-HT1A receptors (Rattus norvegicus, UniProt P19327); experiment: inhibition of [3H]8-OH-DPAT binding to 5-HT1A receptors in vitro; design: species or system rat (male Sprague-Dawley, hippocampal tissue); conditions: rat hippocampus; for Ki: [3H]8-OH-DPAT 2 nM, 25° C., 30 min
T1 sequence (P19327 1-422): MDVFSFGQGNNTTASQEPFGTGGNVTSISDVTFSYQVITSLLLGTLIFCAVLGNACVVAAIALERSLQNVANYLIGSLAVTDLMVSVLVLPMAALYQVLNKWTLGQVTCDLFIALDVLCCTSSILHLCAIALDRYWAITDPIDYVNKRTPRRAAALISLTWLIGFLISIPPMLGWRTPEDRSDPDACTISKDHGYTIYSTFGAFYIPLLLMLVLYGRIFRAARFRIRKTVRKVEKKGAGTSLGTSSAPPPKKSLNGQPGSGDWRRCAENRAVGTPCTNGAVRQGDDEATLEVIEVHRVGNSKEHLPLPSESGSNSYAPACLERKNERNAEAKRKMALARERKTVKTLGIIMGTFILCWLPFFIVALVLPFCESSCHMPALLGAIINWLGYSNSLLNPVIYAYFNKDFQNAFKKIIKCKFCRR
Procedure: Hippocampal tissue from the brains of male Sprague-Dawley rats (Charles River; weight range 150-250 g) was homogenised in ice-cold 50 mM Tris-HCl buffer (pH 7.7 when measured at 25° C., 1:40 w/v) and centrifuged at 30,000 g at 4° C. for 10 minutes. The pellet was rehomogenised in the same buffer, incubated at 37° C. for 10 minutes and centrifuged at 30,000 g at 4° C. for 10 minutes. The final pellet was resuspended in 50 mM Tris-HCl buffer (pH 7.7) containing 4 mM CaCl2. 0.1% L-ascorbic acid and 10 μM pargyline hydrochloride (equivalent to 6.25 mg wet weight of tissue/ml) and used immediately in the binding assay. Aliquots (400 μl; equivalent to 2.5 mg wet weight of tissue/tube) of this suspension were added to tubes containing the ligand (50 μl; 2 nM) and distilled water (50 μl; total binding) or 5-HT (50 μl; 10 μM; non-specific binding) or test compound (50 μl; at a single concentration of 10^-6 M or at 10 concentrations ranging from 10^-11 -10^-3 M). The ligand was [^3 H]8-hydroxy-2-(dipropylamino)tetralin ([^3 H]8-OH-DPAT) and the mixture was incubated at 25° C. for 30 minutes before the incubation was terminated by rapid filtration.

α2A-adrenoceptors = target: T2, α2A-adrenoceptors (Homo sapiens, UniProt P08913); experiment: inhibition of tritiated RX 821002 binding to α2A-adrenoceptors in vitro; design: species or system human (cerebral cortex post-mortem); conditions: human cerebral cortex; for inhibition at 1 µM: 10^-6 M, [3H]RX 821002, read-out: % displacement at 10^-6 M, α2A
T2 construct: Human cerebral cortex obtained at post-mortem; from tissue; host or cells: human cerebral cortex, post-mortem
T2 sequence (P08913 1-465): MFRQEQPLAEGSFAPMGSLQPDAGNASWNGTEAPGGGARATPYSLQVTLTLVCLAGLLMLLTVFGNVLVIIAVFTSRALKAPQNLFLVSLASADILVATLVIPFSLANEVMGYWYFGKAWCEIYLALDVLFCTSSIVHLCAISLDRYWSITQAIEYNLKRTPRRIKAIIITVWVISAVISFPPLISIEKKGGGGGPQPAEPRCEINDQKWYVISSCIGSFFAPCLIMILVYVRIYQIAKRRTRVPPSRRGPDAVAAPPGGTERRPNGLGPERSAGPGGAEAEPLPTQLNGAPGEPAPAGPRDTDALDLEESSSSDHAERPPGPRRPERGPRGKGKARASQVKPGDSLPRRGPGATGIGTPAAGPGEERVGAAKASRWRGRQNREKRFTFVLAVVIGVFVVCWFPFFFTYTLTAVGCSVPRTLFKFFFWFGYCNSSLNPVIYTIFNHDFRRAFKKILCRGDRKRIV
Procedure: Human cerebral cortex obtained at post-mortem was homogenised in ice-cold 0.25M sucrose (1:30 w/v) and centrifuged at 1,000 g at 4° C. for 12 minutes. The supernatant was stored on ice and the pellet was rehomogenised in 0.25M sucrose (1:15 w/v) and centrifuged at 850 g at 4° C. for 12 minutes. Combined supernatants were diluted with 5 mM Tris-HCl (pH 7.5) containing 5 mM ethylenediamine tetraacetic acid (EDTA), readjusted to pH 7.5 (at 25° C.) with 1M sodium hydroxide to 1:80 w/v, and centrifuged at 11,000 g at 4° C. for 10 minutes. The resulting pellet was resuspended in 50 mM Tris-HCl (pH 7.5) containing 5.68 mM L-ascorbic acid and 0.5 mM EDTA, readjusted to pH 7.5 (at 25° C.) with 1M sodium hydroxide to 1:80 w/v, and centrifuged at 11,000 g for 10 minutes. The pellet was stored at -80° C. On the day of the assay the pellet was thawed, resuspended in 50 mM Tris-HCl (pH 7.5) containing 5.68 mM L-ascorbic acid and 5 mM EDTA to 1:80 w/v and centrifuged at 11,000 g for 10 minutes. The final pellet was resuspended in 50 mM Tris-HCl (pH 7.5) containing 5.68 mM L-ascorbic acid and 5 mM EDTA (equivalent to 25 mg wet weight of tissue/ml).
Aliquots (400 μl; equivalent to 10 mg wet weight of tissue/tube) of this suspension were added to tubes containing the ligand (50 μl; 0.2 nM) and distilled water (50 μl; total binding) or phentolamine (50 μl; 50 μM; non-specific binding) or test compound (50 μl; at a single concentration of 10^-6 M or at 10 concentrations ranging from 10^-11 -10^-3 M). The ligand was tritiated RX 821002 (2-(2-methoxy-1,4-[6,7(n)-^3 H]benzodioxan-2-yl)-2-imidazoline) and the mixture was incubated at 0° C. for 75 minutes before the incubation was terminated by rapid filtration.
The filters were washed with ice-cold Tris-HCl buffer and dried. The filters were punched out into vials, scintillation fluid added and radioactivity determined by liquid scintillation counting. The percentage displacement of specific binding of the tritiated ligand was calculated for the single concentration (10^-6 M) of test compound. Displacement curves were then produced for those compounds which displaced ≥50% of specific binding of the tritiated ligand at 10^-6 M using a range of concentrations of the compound. The concentration which gave 50% inhibition of specific binding (IC50) was obtained from the curve. The inhibition coefficient Ki was then calculated using the formula [formula] in which [ligand] is the concentration of the tritiated ligand used and KD is the equilibrium dissociation constant for the ligand.

α2D-adrenoceptors = target: T3, α2D-adrenoceptors (Rattus norvegicus, UniProt P22909); experiment: inhibition of tritiated idazoxan binding to α2D-adrenoceptors in vitro; design: species or system rat (male Charles River CD, frontal cortical tissue); conditions: rat frontal cortex; for inhibition at 1 µM: 10^-6 M, [3H]idazoxan, read-out: % displacement at 10^-6 M, α2D; for Ki: [3H]idazoxan 1 nM, 0° C., 75 min
T3 sequence (P22909 1-465): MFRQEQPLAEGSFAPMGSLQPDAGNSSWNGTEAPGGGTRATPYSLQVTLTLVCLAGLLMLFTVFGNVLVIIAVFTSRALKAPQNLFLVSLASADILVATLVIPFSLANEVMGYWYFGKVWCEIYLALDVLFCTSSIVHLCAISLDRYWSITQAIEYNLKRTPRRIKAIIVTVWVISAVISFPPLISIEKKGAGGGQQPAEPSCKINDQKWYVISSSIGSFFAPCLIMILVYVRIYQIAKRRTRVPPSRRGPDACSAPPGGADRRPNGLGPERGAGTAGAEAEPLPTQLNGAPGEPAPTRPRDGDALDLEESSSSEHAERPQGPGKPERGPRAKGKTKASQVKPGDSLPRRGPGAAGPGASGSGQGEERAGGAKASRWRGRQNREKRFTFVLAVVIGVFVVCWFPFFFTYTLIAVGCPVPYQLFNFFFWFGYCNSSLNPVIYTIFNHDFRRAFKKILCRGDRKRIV

α1-adrenoceptors = experiment: inhibition of 7-methoxy-[3H]prazosin binding to α1-adrenoceptors in vitro; design: species or system rat (male Charles River CD, whole cortical tissue); conditions: rat whole cortex, 30 min; for Ki: 7-methoxy-[3H]prazosin 0.1 nM, 30° C.
Summary of the method: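 Male CD rat cortical membranes in 50 mM Tris-HCl pH 7.6 were incubated 30 min at 30 °C with 7-methoxy-[3H]prazosin (0.1 nM as added), with 5 μM phentolamine (as added) defining non-specific binding, then filtered and counted. Compounds were tested at 10^-6 M for % displacement or at 10^-11–10^-3 M for IC50, and Ki was derived from IC50, ligand concentration and KD.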

D2 dopamine receptors = D2 dopamine receptors (Rattus norvegicus, UniProt P61169); experiment: inhibition of tritiated (S)-sulpiride binding to D2 dopamine receptors in vitro; design: species or system rat (male Charles River CD, striatal tissue); conditions: rat striatum, tritiated (S)-sulpiride 1 nM, 4° C., 40 min
Sequence of D2 dopamine receptors (P61169 whole entry): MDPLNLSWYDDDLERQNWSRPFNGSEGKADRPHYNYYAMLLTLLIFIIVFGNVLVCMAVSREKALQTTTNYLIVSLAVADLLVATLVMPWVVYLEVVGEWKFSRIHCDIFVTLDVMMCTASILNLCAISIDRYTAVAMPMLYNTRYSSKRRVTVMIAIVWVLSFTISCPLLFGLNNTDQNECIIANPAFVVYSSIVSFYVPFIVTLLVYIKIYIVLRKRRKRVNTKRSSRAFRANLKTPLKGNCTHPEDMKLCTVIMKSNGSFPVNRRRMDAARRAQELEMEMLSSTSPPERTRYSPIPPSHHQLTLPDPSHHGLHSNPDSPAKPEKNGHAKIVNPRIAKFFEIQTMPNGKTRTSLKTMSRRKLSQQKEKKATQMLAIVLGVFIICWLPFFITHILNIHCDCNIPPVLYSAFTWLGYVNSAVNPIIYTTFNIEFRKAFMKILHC

SMILES | Ki (5-HT1A receptors) [µM] | inhibition at 1 µM (α2A-adrenoceptors) [%] | inhibition at 1 µM (α2D-adrenoceptors) [%] | Ki (α1-adrenoceptors) [µM] | Ki (D2 dopamine receptors) [µM] | inhibition at 1 µM (5-HT1A receptors; 10^-6 M, [3H]8-OH-DPAT, read-out: % displacement at 10^-6 M, 5-HT1A) [%] | % displacement at 10^-6 M, α1 (α1-adrenoceptors; 10^-6 M, 7-methoxy-[3H]prazosin, 1 µM) [%] | Ki (α2D-adrenoceptors) [µM] | Ki (α2A-adrenoceptors; [3H]RX 821002 0.2 nM, 0° C., 75 min) [µM]
Nc1c(CN2CCN(c3cccc4c3OCCO4)CC2)c(C2CCC2)nn1-c1ccccc1 [Example 29, 5-Amino-4-[4-(1,4-benzodioxan-5-yl)piperazin-1-ylmethyl]-3-cyclobutyl-1-phenylpyrazole] | 0.034 | 100 | 96 | 0.05 | > 0.5 |  |  |  | 
Cn1nc(C2CCC2)c(CN2CCN(c3cccc4c3OCCO4)CC2)c1N [Example 30, 5-Amino-4-[4-(1,4-benzodioxan-5-yl)piperazin-1-ylmethyl]-3-cyclobutyl-1-methylpyrazole] | 0.018 | 99 | 94 | 0.064 | 0.265 |  |  |  | 
Cn1nc(C2CCCC2)c(CN2CCN(c3cccc4c3OCCO4)CC2)c1N [Example 31, 5-Amino-4-[4-(1,4-benzodioxan-5-yl)piperazin-1-ylmethyl]-3-cyclopentyl-1-methylpyrazole] | 0.021 | 95 | 82 | 0.045 | > 0.5 |  |  |  | 
N#Cc1ccc(-n2nc(C3CC3)c(CN3CCN(c4cccc5c4OCCO5)CC3)c2N)cc1 [Example 32, 4-{5-Amino-4-[4-(1,4-benzodioxan-5-yl)piperazin-1-ylmethyl]-3-cyclopropylpyrazol-1-yl}benzonitrile] | 0.129 | 91 | 92 | 0.044 | 0.32 |  |  |  | 
Nc1c(CN2CCN(c3cccc4c3OCCO4)CC2)c(C2CC2)nn1-c1ccccc1Cl [Example 33, 5-Amino-4-[4-(1,4-benzodioxan-5-yl)piperazin-1-ylmethyl]-1-(2-chlorophenyl)-3-cyclopropylpyrazole] |  | 100 | 96 |  | > 0.5 | 98 | 94 |  | 
Nc1c(CN2CCN(c3cccc4c3OCCO4)CC2)c(C2CC2)nn1-c1ccncc1 [Example 34, 5-Amino-4-[4-(1,4-benzodioxan-5-yl)piperazin-1-ylmethyl]-3-cyclopropyl-1-(4-pyridyl)pyrazole] | 0.118 | 96 | 87 | 0.102 | 0.088 |  |  |  | 
Nc1c(CN2CCN(c3cccc4c3OCCO4)CC2)c(C2CC2)nn1-c1ncccn1 [Example 35, 5-Amino-4-[4-(1,4-benzodioxan-5-yl)piperazin-1-ylmethyl]-3-cyclopropyl-1-(2-pyrimidinyl)pyrazole] | 0.0023 | 100 | 96 | 0.082 | 0.184 |  |  |  | 
COc1ccccc1N1CCN(CC2(C)N=C(c3cccnc3)NC2=O)CC1 (stereo not shown) [Example 36, 4-[4-(2-methoxyphenyl)piperazin-1-ylmethyl]-4-methyl-2-(3-pyridyl)-2-imidazolin-5-one] | 0.134 | 66 |  | 0.396 | 0.297 |  |  | 0.127 | 
COc1ccccc1N1CCN(CC2(C)N=C(c3ccccc3)NC2=O)CC1 (stereo not shown) [Example 37, 4-[4-(2-methoxyphenyl)piperazin-1-ylmethyl]-4-methyl-2-phenyl-2-imidazolin-5-one] | 0.093 | 69 |  | 0.271 | 0.268 |  |  | 0.112 | 
CC1(CN2CCN(c3cccc4c3OCCO4)CC2)N=C(c2ccccc2)NC1=O (stereo not shown) [Example 38, 4-[4-(1,4-benzodioxan-5-yl)piperazin-1-ylmethyl]-4-methyl-2-phenyl-2-imidazolin-5-one] | 0.022 |  |  | 0.473 | 0.281 |  |  | 0.199 | 0.196
CC1(CN2CCN(c3cccc4c3OCCO4)CC2)N=C(c2cccnc2)NC1=O (stereo not shown) [Example 40, 4-[4-(1,4-Benzodioxan-5-yl)piperazin-1-ylmethyl]-4-methyl-2-(3-pyridyl)-2-imidazolin-5-one] | 0.019 | 69 |  | > 0.5 | 0.315 |  |  | 0.22 | 
CC1(CN2CCN(c3cccc(C(F)(F)F)c3)CC2)N=C(c2ccccc2)NC1=O (stereo not shown) [Example 41, 4-Methyl-2-phenyl-4-{4-[3-(trifluoromethyl)phenyl]piperazin-1-ylmethyl}-2-imidazolin-5-one] | 0.224 | 57 |  | > 0.5 | 0.129 |  |  | > 0.5 | 
CC1(CN2CCN(c3cccc(Cl)c3)CC2)N=C(c2ccccc2)NC1=O (stereo not shown) [Example 42, 4-[4-(3-Chlorophenyl)piperazin-1-ylmethyl]-4-methyl-2-phenyl-2-imidazolin-5-one] | 0.213 | 84 |  | > 0.5 | > 0.5 |  |  | 0.226 | 
Cc1ccccc1N1CCN(CC2(C)N=C(c3ccccc3)NC2=O)CC1 (stereo not shown) [Example 43, 4-Methyl-4-[4-(2-methylphenyl)piperazin-1-ylmethyl]-2-phenyl-2-imidazolin-5-one] | 0.276 | 93 |  | > 0.5 | > 0.5 |  |  | 0.033 | 
